Test [1] concerns the target T1, Fibronectin receptor (Fn-R) (Homo sapiens, UniProt P05556+P08648).
T1 construct: similarly purified from (100 mM) octyl glucoside-extracted human placenta; from tissue; host or cells: human placenta
The test can be described thus: Competitive ELISA for fibronectin receptor binding. Conditions: purified receptor from human placenta, read-out: FnR Binding (IC50). (In general: ELISA stands for enzyme-linked immunosorbent assay.)
Experimental: Peptide binding to purified Fn-R was determined by using a competitive enzyme-linked immunosorbent assay (ELISA) in which fibronectin is immobilized and the binding of solubilized Fn-R is detected with labeled anti-FnR antibodies in the presence of various concentrations of peptide analogue.
Microtiter plates were coated with 110 μl of human fibronectin (at 2 μg/ml) in TBS. The plates were washed three times with TBS that contained 0.05% Tween 20. If necessary, peptides were added after this washing in 10 microliter aliquots. The fibronectin receptor was then added in 2-fold serial dilutions with TBS containing 20 mM octyl glucoside and 2 mM MnCl2. The plates were incubated for three hours at room temperature, washed with 200 μl of the above TBS-Tween buffer. 100 μl of affinity-purified rabbit anti-human fibronectin receptor antibody was added to the wells and the plates were incubated for an additional two hours, washed twice with TBS-Tween and then distilled water. Affinity-purified goat anti-rabbit IgG conjugated to horseradish peroxidase (100 μl) was then added to each well. Bonding reactions were incubated for 16 hours at room temperature. The following day, the plates were washed twice with TBS-Tween and then distilled water. […]
IC50 s for FnR were determined by ELISA (Example III).

Test [2] relates to platelets. The test can be described thus: Ex vivo platelet aggregation after peptide injection in canine coronary thrombosis model. The following applies: for Ex vivo reduction of aggregation relative to control levels: 3 mg/kg. Further details: species or system dog. Here is the method: For all ex vivo studies (see FIG. 3), control aggregation values were standardized to the percentages of light transmission observed in PRP and PPP samples (0% and 100%, respectively).
(§1) Animals were randomly assigned to two treatment groups: vehicle control (i.e., normal saline) or RGD peptides at various concentrations. Peptides were administered intra-atrially in both bolus and continuous injections. […] A continuous infusion of the same peptide was then started immediately after completion of this initial injection. Animals that received a 5 mg/kg bolus. also received a 5 mg/kg/hr infusion, whereas animals that received a 10 mg/kg bolus also received a 10 mg/kg/hr infusion. The anti-thrombotic effects of the peptides were monitored until 30 minutes after the occurrence of a persistent, occlusive thrombus or five hours after the initiation of electrical stimulation (whichever resulted first). If an occlusive thrombus had not developed within four hours after the initiation of current, the peptide infusion was stopped.
Platelet counts and ex vivo aggregation studies were performed one hour before and 1, 3, and 5 hours after application of anodal direct current.
Platelet aggregation was also determined ex vivo at one, three, and five hours after current application. […]
The average aggregation values determined in these studies for all of the peptide treatments are depicted in FIG. 3. […] The control responses in these studies were 70-80% of maximum. […] Here the control responses were 55-80% of maximum.

Test [3] deals with Electrically induced canine coronary thrombosis. The test can be described thus: Electrically induced canine coronary thrombosis, time to full occlusion. It is filed as in vivo, dog. The method, then: Male mongrel dogs weighing 14 to 20 kg were selected based on proper aggregation of their platelets in response to arachidonic acid, collagen, and adenosine disphosphate (ADP) and based on similar weights and hemodynamic properties.
Before surgery, the animals were anesthetized with sodium pentobarbital (30 mg/kg, i.v.) and then intubated and ventilated on room air with positive pressure using a respirator (Harvard Apparatus, S. Natick, Mass.) at a volume of 30 ml/kg and a frequency of 12 breaths/min. Surgery, performed under aseptic conditions, was begun with the placement of cannulae into the left carotid artery and jugular vein for monitoring arterial blood pressure (Statham P23 pressure transducer, Gould, Inc., Cardiovascular Products, Oxnard, Calif.) and administering intravenous fluids.
The heart was exposed via a left thoracotomy through the 5th intercostal space. A 2-cm segment of the left circumflex coronary artery (LCCA) was isolated from surrounding tissue by blunt dissection. […] The intra-coronary electrode was constructed by attaching a 25-gauge hypodermic needle tip to a 30-gauge Teflon-insulated silver-coated copper wire. The mechanical occluder was constructed of stainless steel in a C shape with a Teflon screw (2 mm diameter) on top. It was adjusted to control vessel circumference and decrease the reactive hyperemic flow due to a 10-sec (full) occlusion by 50-70% without affecting basal coronary blood flow (FIG. 1). A monopolar epicardial electrode was sutured to the surface of the ventricle in the region of LCCA distribution to monitor ischemic changes in the electrocardiogram (ECG). The left atrium was cannulated with polythylene tubing for administration of the peptide. Continuous recordings of blood pressure, limb lead II ECG, epicardial electrogram, and mean and phasic LCCA blood flow were obtained on a Model 7 polygraph (Grass Instrument Co., Quincy, Mass.).
One hour after the completion of surgery, a 100 micro-amp continuous anodal direct current delivered from a 9 volt nickel-cadmium battery was applied to the intimal surface of the LCCA. The anode of the battery was in series with a 250,000 ohm potentiometer and the intraluminal coronary artery electrode. The electric circuit was completed by placing the cathode in a subcutaneous site. Electrical stimulation was applied for three hours. At the conclusion of each experiment, the heart was fibrillated electrically and quickly removed, and the LCCA was dissected free as far as possible to verify the position of the implanted anodal electrode.
as §1
Coronary thrombosis was quantified as the time to full occlusion. The effects of the various peptide treatments on coronary thrombosis is illustrated in FIG. 4.

For test [4], the system named is platelets. The test can be described thus: Ex vivo ADP-stimulated platelet aggregation in baboon PRP. The following applies: animal 2; ADP 10 μm; PRP at 0, 1 and 2 hours. The method, then: At one- and two-hour time points, template bleeding times were measured, and blood samples were drawn to assess the hematology aggregation studies. Platelet aggregation studies were performed as described in Example V using ADP as the stimulus.
In addition, platelet aggregation studies were conducted on PRP derived from the second animal. Whole blood was drawn at three time points (0, 1 and 2 hours) of both control and experimental shunts.

Setting [5] is: 10 mg/kg bolus + 10 mg/kg/hr infusion, intra-atrial.
Setting [6] is: 10 mg/kg injection, all three time points.

The term IC50 denotes the point on the concentration scale where inhibition reaches its midpoint.

Where “and” joins values, the source holds several entries; their conditions need not be identical. Identical values can stand only once.

T1 sequence (P08648 42-894 limits assumed): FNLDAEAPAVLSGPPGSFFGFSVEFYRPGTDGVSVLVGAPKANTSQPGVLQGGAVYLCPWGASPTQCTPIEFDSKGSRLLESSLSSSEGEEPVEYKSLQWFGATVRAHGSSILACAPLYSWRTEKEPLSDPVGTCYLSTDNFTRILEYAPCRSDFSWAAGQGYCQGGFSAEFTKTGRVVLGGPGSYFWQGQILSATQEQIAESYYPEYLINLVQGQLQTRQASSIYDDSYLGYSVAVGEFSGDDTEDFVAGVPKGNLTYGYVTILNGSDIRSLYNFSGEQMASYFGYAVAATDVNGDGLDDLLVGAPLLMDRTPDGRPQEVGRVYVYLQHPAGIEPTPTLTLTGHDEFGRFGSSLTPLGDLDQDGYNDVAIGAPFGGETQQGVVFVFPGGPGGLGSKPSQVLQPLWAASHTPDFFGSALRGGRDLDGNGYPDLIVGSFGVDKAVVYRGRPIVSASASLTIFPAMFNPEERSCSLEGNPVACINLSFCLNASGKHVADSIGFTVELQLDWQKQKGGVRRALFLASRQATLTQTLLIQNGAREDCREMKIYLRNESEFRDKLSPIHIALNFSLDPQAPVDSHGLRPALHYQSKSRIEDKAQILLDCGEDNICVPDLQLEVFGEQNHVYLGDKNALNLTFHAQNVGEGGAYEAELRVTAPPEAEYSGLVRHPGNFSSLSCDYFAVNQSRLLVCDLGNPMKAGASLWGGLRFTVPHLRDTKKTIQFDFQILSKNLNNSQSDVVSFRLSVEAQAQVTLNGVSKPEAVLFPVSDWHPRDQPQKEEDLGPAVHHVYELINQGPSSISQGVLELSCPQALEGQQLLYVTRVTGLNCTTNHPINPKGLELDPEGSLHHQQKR
T1 sequence (P08648 895-1049 partner limits assumed): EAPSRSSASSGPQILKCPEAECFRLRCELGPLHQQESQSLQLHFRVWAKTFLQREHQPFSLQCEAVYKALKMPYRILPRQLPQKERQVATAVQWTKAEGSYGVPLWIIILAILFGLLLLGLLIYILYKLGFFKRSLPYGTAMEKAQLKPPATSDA
T1 sequence (P05556 21-798): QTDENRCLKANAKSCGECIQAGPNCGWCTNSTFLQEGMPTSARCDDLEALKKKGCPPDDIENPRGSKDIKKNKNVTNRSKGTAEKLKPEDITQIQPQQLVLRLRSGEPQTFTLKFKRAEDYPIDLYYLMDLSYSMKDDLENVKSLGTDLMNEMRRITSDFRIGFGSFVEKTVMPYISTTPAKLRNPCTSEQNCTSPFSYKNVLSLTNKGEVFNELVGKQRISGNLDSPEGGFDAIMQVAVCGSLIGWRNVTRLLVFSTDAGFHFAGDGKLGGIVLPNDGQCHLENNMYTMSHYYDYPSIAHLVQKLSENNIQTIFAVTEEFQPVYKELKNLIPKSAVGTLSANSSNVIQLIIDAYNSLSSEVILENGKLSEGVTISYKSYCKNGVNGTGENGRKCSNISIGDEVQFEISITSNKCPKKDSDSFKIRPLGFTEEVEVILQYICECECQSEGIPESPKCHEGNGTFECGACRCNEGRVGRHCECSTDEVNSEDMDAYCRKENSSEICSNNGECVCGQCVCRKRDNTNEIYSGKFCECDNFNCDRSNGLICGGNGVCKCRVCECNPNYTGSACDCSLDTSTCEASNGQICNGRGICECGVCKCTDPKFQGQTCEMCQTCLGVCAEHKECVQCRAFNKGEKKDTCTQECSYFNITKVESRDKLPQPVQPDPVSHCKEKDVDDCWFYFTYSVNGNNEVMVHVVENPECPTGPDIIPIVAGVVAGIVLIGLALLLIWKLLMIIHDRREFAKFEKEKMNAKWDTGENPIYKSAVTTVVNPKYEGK

Consider YRGDSPDG, for which the IC50 in test [1] was 1100 nM.

For RPenGRGDWPCR, the “Ex vivo reduction of aggregation relative to control levels” value with platelets [2] (one hour) is 20-58%; in the test with platelets [2] (three and five hours, listed as 4R), 75-100% and 72-100%. Also, in the test with platelets [2] (10 mg/kg injection, all time points), the “Ex vivo platelet response to all modes of stimulation” value was “unresponsive to all modes of stimulation”. Also, the results for the “Effect on time to full coronary occlusion” value (from here on “Effect on time”) in test [3] (3 mg/kg) and in test [3] (setting [5]) were “ineffective” and “prevented occlusion throughout the duration of the study”, respectively.

As for GPenGHRGDLRCA, in the test with platelets [4], the “Ex vivo platelet response to ADP” value is given as “completely unresponsive”. In addition, in the test on platelets [2] (10 mg/kg injection, 1, 3 and 5 h), the “Ex vivo inhibition of ADP-stimulated aggregation” value is “substantially inhibited”. For the same substance, in the test on platelets [2] (setting [6]), the “Ex vivo inhibition of AA-stimulated aggregation relative to control levels” value is 43-70% and the “Ex vivo inhibition of collagen-stimulated aggregation relative to control levels” value is 12-50%. The “Effect on time” value in test [3] (setting [5]) is recorded as “did not significantly influence”.

In the case of RPenGHRGDWRCR, the “Ex vivo inhibition of platelet activation by collagen” value with platelets [2] (5 mg/kg injection) is recorded as “near-maximal inhibition”. The “Ex vivo platelet response to ADP and AA” value with platelets [2] (5 mg/kg injection, all three time points) is “completely unresponsive”. In the test with platelets [2] (5 mg/kg injection, platelet count ca. one-third of normal (104,000/ml vs. 361,000/ml)), the “Ex vivo anti-aggregation effect at low platelet count” value is listed as “more pronounced”. For the same substance, the “Effect on time” value in test [3] (5 mg/kg bolus + 5 mg/kg/hr infusion, intra-atrial) was “significantly prolonged the time to occlusion”; in test [3] (setting [5]) it was “completely prevented occlusion”. In addition, the “Thrombus formation in animals with low platelet levels” value in test [3] (5 mg/kg, circulating platelet levels one-third of normal) was “able to prevent thrombus formation”.

On to VRGDSPDG, for which the IC50 in test [1] amounted to 40 nM.

The record behind these values is patent publication US6100236A, “Method and composition for treating thrombosis” (La Jolla Cancer Research Foundation, priority 1995, dated 2000).
